Twelve compounds from ChEMBL document CHEMBL1147725, “Identification and biological characterization of 6-aryl-7-isopropylquinazolinones as novel TRPV1 antagonists that are effective in models of chronic pain” (J Med Chem, 2006) can be followed below.

In data set [1] the target is T1, Transient receptor potential cation channel subfamily V member 1 (Homo sapiens, UniProt Q8NER1). As to the kind of experiment: Inhibition of calcium influx evoked by capsaicin in human TRPV1 expressing cells by fluorescence assay. The class given is functional.
Data set [2] in a line: Aqueous solubility at pH 6.8 and 25 degC. The class given is physicochemical. As to conditions: aqueous medium.
In data set [3] the target is T1, Transient receptor potential cation channel subfamily V member 1. As to the kind of experiment: Inhibition of low pH activation of human TRPV1. The class given is functional.
Data set [4] deals with T2, Transient receptor potential cation channel subfamily V member 1 (Rattus norvegicus, UniProt O35433). Briefly: (§1) Inhibition of calcium influx evoked by capsaicin in rat TRPV1 expressing cells by fluorescence assay. The format is functional, cell-based.
Data set [5] addresses T2, Transient receptor potential cation channel subfamily V member 1. Briefly: Inhibition of low pH activation of rat TRPV1. The class given is functional.
The target of data set [6] is Transient receptor potential cation channel subfamily V member 1 (Rattus norvegicus) (UniProt O35433). The data set is described as §1. The format is functional, cell-based.

≈ marks a conversion by molar mass, not a printed value. Calls of active or inactive are those of the source. No cut-off for these calls is given here.

T1 sequence (Q8NER1 whole entry): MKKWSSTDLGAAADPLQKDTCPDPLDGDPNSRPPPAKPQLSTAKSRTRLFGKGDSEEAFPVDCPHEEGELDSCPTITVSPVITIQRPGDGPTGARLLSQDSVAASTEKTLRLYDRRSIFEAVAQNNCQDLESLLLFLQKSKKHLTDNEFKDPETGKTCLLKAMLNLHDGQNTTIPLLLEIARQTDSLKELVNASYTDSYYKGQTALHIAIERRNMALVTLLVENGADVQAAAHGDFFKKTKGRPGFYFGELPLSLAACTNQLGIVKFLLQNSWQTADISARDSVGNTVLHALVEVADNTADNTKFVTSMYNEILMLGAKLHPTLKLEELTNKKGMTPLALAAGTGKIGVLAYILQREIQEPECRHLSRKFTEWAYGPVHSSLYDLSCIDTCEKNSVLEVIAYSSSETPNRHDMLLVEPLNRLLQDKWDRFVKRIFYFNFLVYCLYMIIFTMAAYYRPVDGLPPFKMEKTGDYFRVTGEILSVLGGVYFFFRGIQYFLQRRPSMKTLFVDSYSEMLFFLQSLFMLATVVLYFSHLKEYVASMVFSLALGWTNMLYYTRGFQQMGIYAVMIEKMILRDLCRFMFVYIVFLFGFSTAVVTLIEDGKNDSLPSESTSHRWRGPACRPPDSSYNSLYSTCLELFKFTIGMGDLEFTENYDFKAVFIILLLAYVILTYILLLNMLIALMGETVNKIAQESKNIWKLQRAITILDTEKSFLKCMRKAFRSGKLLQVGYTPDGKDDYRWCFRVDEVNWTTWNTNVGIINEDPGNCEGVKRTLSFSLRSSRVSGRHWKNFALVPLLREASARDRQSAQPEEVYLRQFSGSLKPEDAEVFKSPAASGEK
T2 sequence (O35433 whole entry): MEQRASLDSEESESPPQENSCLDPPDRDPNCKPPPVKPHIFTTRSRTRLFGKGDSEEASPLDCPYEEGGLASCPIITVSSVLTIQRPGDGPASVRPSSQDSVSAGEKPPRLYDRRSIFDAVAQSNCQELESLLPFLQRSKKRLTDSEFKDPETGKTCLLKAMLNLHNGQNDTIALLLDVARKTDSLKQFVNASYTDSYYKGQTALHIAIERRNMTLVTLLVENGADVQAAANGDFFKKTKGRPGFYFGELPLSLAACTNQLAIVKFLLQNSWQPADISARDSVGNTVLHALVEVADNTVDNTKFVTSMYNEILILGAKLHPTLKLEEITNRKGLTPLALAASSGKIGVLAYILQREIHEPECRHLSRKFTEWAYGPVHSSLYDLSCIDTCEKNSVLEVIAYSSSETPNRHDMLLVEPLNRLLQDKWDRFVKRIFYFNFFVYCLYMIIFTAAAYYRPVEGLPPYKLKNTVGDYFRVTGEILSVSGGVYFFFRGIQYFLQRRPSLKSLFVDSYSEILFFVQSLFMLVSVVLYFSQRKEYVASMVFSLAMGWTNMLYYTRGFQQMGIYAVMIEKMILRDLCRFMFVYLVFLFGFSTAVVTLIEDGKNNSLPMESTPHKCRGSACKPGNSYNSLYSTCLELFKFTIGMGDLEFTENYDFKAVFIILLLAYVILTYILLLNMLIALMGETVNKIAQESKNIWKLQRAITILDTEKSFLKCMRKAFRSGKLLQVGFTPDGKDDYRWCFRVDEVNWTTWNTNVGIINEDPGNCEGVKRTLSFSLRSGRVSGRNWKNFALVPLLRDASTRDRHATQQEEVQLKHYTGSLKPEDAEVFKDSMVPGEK
Transient receptor potential cation channel subfamily V member 1 (Rattus norvegicus), sequence (O35433 whole entry): as above

The term IC50 denotes the concentration needed to halve the response being measured. The solubility is the concentration that dissolves in the medium under given conditions. In the case of `Cc1nc2cc(C(C)C)c(-c3ccc(Cl)cc3)cc2c(=O)[nH]1`, the IC50 in data set [1] was 13 nM. This compound returned a solubility in data set [2] of 4 µg/mL (≈ 12.8 µM).
For `Cc1nc2cc(C(C)C)c(-c3ccc(Cl)c(F)c3)cc2c(=O)[nH]1`, in data set [1], the IC50 was found to be 23 nM.
Consider `CCc1nc2cc(C(C)C)c(-c3ccc(Cl)cc3)cc2c(=O)[nH]1`, for which, in data set [1], the concentration for half-maximal inhibition (IC50) was above 1000 nM.
Turning to `CC(C)(C)c1nc2[nH]c(=S)[nH]c(=O)c2cc1-c1ccccc1`, the IC50 in data set [3] came to 49 nM; in data set [1] it was 100 nM; in data set [4], 90 nM; in data set [5] it was 25 nM.
Turning to `Cc1nc(O)c2cc(-c3ccc(Cl)c(OC(C)C)c3)c(C(C)C)cc2n1`, the 50% inhibitory concentration (IC50) in data set [1] came out at 201 nM.
As to `Cc1nc(O)c2cc(-c3ccc(Cl)c(OCC4CCC4)c3)c(C(C)C)cc2n1`, the IC50 in data set [1] is 144 nM.
As to `Cc1nc(O)c2cc(-c3ccc(Cl)c(OCC(=O)O)c3)c(C(C)C)cc2n1`, the IC50 in data set [1] is above 1000 nM.
Still for that read-out and setting: to `CCOc1cc(-c2cc3c(=O)[nH]c(C)nc3cc2C(C)C)c(Cl)cc1Cl` belongs 37 nM.
The same measure, in the same setting: under `CCOc1cc(-c2cc3c(=O)[nH]c(C)nc3cc2C(C)C)ccc1Cl` stands 12 nM; under `Cc1nc(O)c2cc(-c3ccc(C)c(Cl)c3)c(C(C)C)cc2n1`, 42 nM.
As to `CC(C)(C)c1nc2nc(S)nc(O)c2cc1-c1ccc(Cl)cc1`, the result in data set [1] and in data set [6] was inactive.
In the case of `COc1cc(-c2cc3c(=O)[nH]c(C)nc3cc2C(C)C)ccc1Cl`, the IC50 in data set [1] worked out at 14 nM.
